Key:
Type in all cases: biochemical
[1] = biological target: T1, Streptococcus pneumoniae aspartate semialdehyde dehydrogenase (spASADH) (Streptococcus pneumoniae, UniProt Q8DQ00); assay: spASADH kinetic assay: reverse direction, NADPH absorbance at 340 nm; Ki from Dixon plot assuming competitive inhibition against ASA; conditions: FIG. 5, Table 2; pH 8.6, r.t., 0.15 mM ASA, 1.5 mM NADP, 20 mM phosphate
T1 construct: homodimer from general knowledge
T1 sequence (Q8DQ00 1-358): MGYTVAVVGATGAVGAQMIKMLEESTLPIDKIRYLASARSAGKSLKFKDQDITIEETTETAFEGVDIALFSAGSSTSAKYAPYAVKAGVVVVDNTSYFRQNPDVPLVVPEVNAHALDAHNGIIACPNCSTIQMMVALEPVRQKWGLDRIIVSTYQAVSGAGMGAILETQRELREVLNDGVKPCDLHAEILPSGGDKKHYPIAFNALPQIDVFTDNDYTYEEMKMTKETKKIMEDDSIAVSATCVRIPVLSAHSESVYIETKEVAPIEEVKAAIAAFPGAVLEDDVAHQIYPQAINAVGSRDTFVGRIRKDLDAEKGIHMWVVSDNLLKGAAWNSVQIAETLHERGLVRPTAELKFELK

[2] = biological target: Vibrio cholerae aspartate semialdehyde dehydrogenase (vcASADH); assay: vcASADH kinetic assay: reverse direction, NADPH absorbance at 340 nm; Ki from Dixon plot assuming competitive inhibition against ASA; conditions: FIG. 5, Table 2; pH 8.6, r.t., 0.3 mM ASA, 1.5 mM NADP, 20 mM phosphate
[3] = biological target: Streptococcus pneumoniae aspartate semialdehyde dehydrogenase (spASADH) (Streptococcus pneumoniae, UniProt Q8DQ00); assay: biochemical; conditions: relative to parent or neighbouring derivative
[4] = biological target: T2, Vibrio cholerae aspartate semialdehyde dehydrogenase (vcASADH) (Vibrio cholerae serotype O1, UniProt P23247); assay: biochemical; conditions: relative to parent or neighbouring derivative
T2 construct: made in house

[5] = biological target: T3, aspartate N-acetyltransferase (ANAT) (Homo sapiens, UniProt Q8N9F0); assay: ANAT substrate selectivity (acetyl group acceptor); conditions: glutamate vs. aspartate as acetyl acceptor
T3 sequence (Q8N9F0 1-302): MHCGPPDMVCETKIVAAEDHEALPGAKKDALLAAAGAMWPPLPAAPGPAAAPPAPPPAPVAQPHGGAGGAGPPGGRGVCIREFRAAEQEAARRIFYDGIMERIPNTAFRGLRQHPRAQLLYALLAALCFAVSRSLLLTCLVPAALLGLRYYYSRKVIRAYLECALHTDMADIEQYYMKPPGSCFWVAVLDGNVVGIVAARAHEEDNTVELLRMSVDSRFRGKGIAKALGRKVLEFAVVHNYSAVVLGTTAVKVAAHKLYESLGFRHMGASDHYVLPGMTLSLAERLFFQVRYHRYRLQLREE
Text: ANAT is difficult to purify.

T2 sequence (P23247 whole entry): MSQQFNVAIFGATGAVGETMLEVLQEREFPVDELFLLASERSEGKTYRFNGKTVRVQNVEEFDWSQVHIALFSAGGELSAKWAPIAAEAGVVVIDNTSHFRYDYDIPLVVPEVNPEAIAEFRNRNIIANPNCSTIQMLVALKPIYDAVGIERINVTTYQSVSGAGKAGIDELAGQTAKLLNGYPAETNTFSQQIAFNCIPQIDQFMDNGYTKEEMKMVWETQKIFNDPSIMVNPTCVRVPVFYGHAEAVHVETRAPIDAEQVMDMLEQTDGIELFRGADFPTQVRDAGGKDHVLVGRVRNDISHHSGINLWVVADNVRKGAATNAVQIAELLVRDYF

Compound | Ki [1] [µM] | Ki [2] [µM] | inhibition / binding affinity for spASADH (in words) [3] | inhibition / binding affinity for vcASADH (in words) [4] | catalytic efficiency relative to that of the physiological substrate [5]
O=C(O)CN(Cc1ccc(C(=O)O)c(C(=O)O)c1)Cc1ccccc1C(F)(F)F [Compound 24, N-(2-trifluoromethylbenzyl)-N-carboxymethyl-3,4-dicarboxybenzylamine] | 509 ± 29 | 727 ± 60 | did not alter the affinity | did not alter the affinity | –
O=C(O)CN(Cc1cccc(C(F)(F)F)c1)Cc1ccc(C(=O)O)c(C(=O)O)c1 [Compound 25, N-(3-trifluoromethylbenzyl)-N-carboxymethyl-3,4-dicarboxybenzylamine] | 441 ± 27 | 678 ± 36 | did not alter the affinity | did not alter the affinity | –
O=C(O)CN(Cc1ccc(C(=O)O)c(C(=O)O)c1)Cc1ccccc1OC(F)(F)F [Compound 27, N-(2-trifluoromethyoxybenzyl)-N-carboxymethyl-3,4-dicarboxybenzylamine] | 540 ± 32 | 708 ± 47 | did not alter the affinity | did not alter the affinity | –
O=C(O)CN(Cc1cccc(OC(F)(F)F)c1)Cc1ccc(C(=O)O)c(C(=O)O)c1 [Compound 28, N-(3-trifluoromethoxybenzyl)-N-carboxymethyl-3,4-dicarboxybenzylamine] | 427 ± 31 | 684 ± 35 | did not alter the affinity | did not alter the affinity | –
N[C@@H](CCC(=O)O)C(=O)O [glutamate] | – | – | – | – | less than 1%
